How the values were obtained:
wt P. aeruginosa biofilm = experiment: biofilm inhibition, microtiter tray, crystal violet staining; format: cell-based, Pseudomonas aeruginosa; conditions: 8 hours
Protocol: Briefly, using a microtiter tray format, a 20 hour old culture of wt P. aeruginosa was diluted 1000 fold into 100 μL ABtrace media aliquots supplemented with 0.2% glucose, 0.5% Cas amino acids, 1 μM FeCl3, 0.2% DMSO and varying concentrations (100 μM, 50 μM, 25 μM, 12μM, 6 μM or 0 μM) of either H6-335-P1, H6-335, H6-335-SAR compound 26 or H6-335-SAR compound 25. The resulting microtiter trays were sealed with an air permeable lid, and biofilm cultures were grown on a rotary shaker at 37° C. and 160 RPM for 8 hours. After this, culture-supernatants were discarded and the remaining biomass was stained with crystal violet (Groizeleau et al., 2016). Finally, the amount of Crystal violet bound to the biofilm present in each well was plotted as a function of H6-335-P1, H6-335, H6-335-SAR compound 26 and H6-335-SAR compound 25 in the following concentrations: 100 μM, 50 μM, 25 μM, 12 μM, 6 μM or 0 μM (FIG. 4A). Means and standard deviations (bars) in FIG. 4A represents 4 biological replicates (n=4).

[1] = test system: c-di-GMP level of P. aeruginosa ΔwspFΔpelΔpsl/pCdrA-gfp; experiment: microbe, parasite or virus in culture; format: cell-based, Pseudomonas aeruginosa
Protocol: The ΔwspF mutant overproduces c-di-GMP and the ΔpelΔpsl mutations renders the bacteria deficient in exopolysaccharide production, which keeps the growing bacteria in the planktonic mode.
The reduction of total cellular c-di-GMP level was determined as follows. To evaluate the impact of the various compounds on the c-di-GMP level of P. aeruginosa ΔwspFΔpelΔpsl/pCdrA-gfp, 20 hour old cultures of the strain were diluted 100 fold in microtiter plate wells (Nunc) containing […] aliquots of ABTrace medium supplemented with 0.2% glucose, 0.5% casamino acids, 60 μg/ml gentamicin, 1 μM FeCl3, 1% DMSO, and concentrations of compounds as indicated.
Subsequently the microtiter plates were incubated at 37° C. and 440 RPM in a TECAN reader (Infinite F200 PRO), and corresponding values of cell density (OD600) and GFP fluorescence were measured every 20 minutes for 24 hours. The reduction values indicated in the tables are calculated as fluorescence values divided by optical density at a time point where this value reached a plateau.
The resulting microtiter trays were incubated at 37° C. at 440 RPM in a TECAN reader (Infinite F200 PRO), and corresponding values of GFP flourescence (FU) and cell density (OD600) were measured every 20 minutes for 24 hours. […] In FIG. 3A and 3B, means and standard deviations (bars) represents 3 biological replicates (n=3).

[2] = test system: PA01(wspF)::araC-PBAD-bifA+; experiment: biofilm formation with arabinose inducible bifA expression; format: cell-based, Pseudomonas aeruginosa; conditions: 6 to 100 μM with 0.05% or 0.2% arabinose, 18 hours, FIG. 6C
Protocol: Using a 96 well microtiter platform, overnight cultures of the strains were diluted 200 fold into 100 uL ABTrace media aliquots (Pamp and Tolker-Nielsen, 2007) supplemented with 0.2% glucose, 0.5% casa amino acids, 1 μM FeCl3, 1% DMSO and varying concentrations of arabinose and H6-335-P1.
The resulting microtiter plates were sealed with air permeable lids and biofilm cultures were grown at 37° C. on a rotary shaker (280 RPM) for 18 hours, after which the culture supernatants were discarded and biofilm present in the wells were quantified by crystal violet staining (Groizeleau et al., 2016).
Finally, biofilm prevailing following treatment with varying concentrations of arabinose and H6-335-P1 were plotted. The amounts of supplemented arabinose (0% A, 0.05% A or 0.2% A) and H6-335-P1 (100 μM, 50 μM, 25 μM, 12 μM, 6 μM or 0 μM) are indicated below the X-axis of FIG. 6C. Numbers above the bars in FIG. 6 represents the crystal violet measurements.

Escherichia coli = experiment: biofilm formation / dispersal, host range; format: cell-based; conditions: data not shown

Question: Which “reduction of biofilm formation” value (wt P. aeruginosa biofilm; 100 μM, compared to untreated (DMSO control)) does the source give for `N=C1NN=C(N)/C1=N/Nc1ccccc1F` [H6-335-P1, 4-[(2-fluorophenyl) hydrazinylidene]pyrazole-3,5-diamine] here?
Answer: The value was 98%.

Question: And the “biofilm inhibition (dose-response, words)” value (wt P. aeruginosa biofilm; 6 to 100 μM, FIG. 4A)?
Answer: Its value is “distinct concentration dependent biofilm inhibition”.

Question: What about the “reduction of the fluorescence output of the c-di-GMP monitor cultures” value ([1]; 100 μM, compared with control cultures with 1% DMSO) of the same molecule?
Answer: Its value is 80%.

Question: What about the inhibition at 100 µM ([1]; Pseudomonas aeruginosa, read-out: Reduction of total cellular c-di-GMP level) of the same molecule?
Answer: The inhibition at 100 µM was 80%.

Question: And the “inhibition of biofilm formation in arabinose stimulated (bifA induced) cultures” value [2]?
Answer: The value was “synergistic inhibitory effect on biofilm formation”.

Question: And the “biofilm formation of Escherichia coli” value (Escherichia coli)?
Answer: Its value is “failed to reduce biofilm formation”.

Reference: US20230321043A1, “COMPOUNDS HAVING PSEUDOMONAS ANTI-BIOFILM PROPERTIES” (Københavns Universitet, priority 2020, published 2023)
